The structures appear in SMILES notation. A value given as a limit tells only on which side of the number the result lay.

In assay [1] the test system is FM3A. Kind of assay: Cytotoxicity against mouse FM3A cell line. The format is functional, cell-based.
Assay [2] concerns Plasmodium falciparum. Nature of the assay: Antimalarial activity against chloroquine-sensitive Plasmodium falciparum FCR3. Format: functional, organism-based.
In assay [3] the test system is FM3A. Nature of the assay: Selectivity ratio of EC50s against Plasmodium falciparum FCR3 to mice (Mus musculus) FM3A cells. The format is functional.

Broadly, the EC50 is the concentration giving half of the maximal effect. `CCCCCCCCCCCCCCCC[n+]1ccc(C(=O)NCCCCCCNC(=O)c2cc[n+](CCCCCCCCCCCCCCCC)cc2)cc1`: the 50% effective concentration (EC50) in assay [1] was 2200 nM; in assay [2], 3500 nM.

On to `CCCCCC[n+]1ccc(C(=O)NCCCCCCNC(=O)c2cc[n+](CCCCCC)cc2)cc1.[Br-].[Br-]`, for which the “Ratio EC50” value in assay [3] is reported as more than 333. The EC50 in assay [1] is more than 17300 nM; in assay [2], 52 nM.

For the compound `CCCCCCCCCCCCCC[n+]1ccc(C(=O)NCCCCCCNC(=O)c2cc[n+](CCCCCCCCCCCCCC)cc2)cc1.[Br-].[Br-]`, in assay [3], the “Ratio EC50” value stood at 3. Further, the figures for the 50% effective concentration (EC50) in assay [1] and in assay [2] were 2800 nM and 1100 nM, respectively.

For the compound `C=C[C@H]1CN2CC[C@H]1C[C@H]2[C@H](O)c1ccnc2ccc(OC)cc12` [QUININE], the “Ratio EC50” value in assay [3] was 910.

For the compound `CCCCCCCCCC[n+]1ccc(C(=O)NCCCCCCNC(=O)c2cc[n+](CCCCCCCCCC)cc2)cc1.[Br-].[Br-]`, in assay [3], the “Ratio EC50” value is 11. The figures for the EC50 in assay [1] and in assay [2] were 450 nM and 40 nM, respectively.

Consider `CCN(CC)CCCC(C)Nc1ccnc2cc(Cl)ccc12` (centres undefined) [CHLOROQUINE], for which the “Ratio EC50” value in assay [3] is 1800.

Take `CCCCCCCCCCCC[n+]1ccc(C(=O)NCCCCCCNC(=O)c2cc[n+](CCCCCCCCCCCC)cc2)cc1.[Br-].[Br-]`: the “Ratio EC50” value in assay [3] is 3. In addition, the EC50 in assay [1] was 420 nM; in assay [2], 130 nM.

Regarding `CCCCCCCC[n+]1ccc(C(=O)NCCCCCCNC(=O)c2cc[n+](CCCCCCCC)cc2)cc1.[Br-].[Br-]`, in assay [3], the “Ratio EC50” value is on record as 580. Moreover, the EC50 came to 5800 nM in assay [1] and 10 nM in assay [2].

(Values after ChEMBL document CHEMBL1147011, “Antimalarial effect of bis-pyridinium salts, N,N'-hexamethylenebis(4-carbamoyl-1-alkylpyridinium bromide)” (Bioorg Med Chem Lett, 2006).)
